# What was measured:
# [1] = target: T1, complex I (CI), NADH-binding site (Bos taurus, UniProt P25708); test: NADH:APAD+ oxidoreduction, absorbance; assay type: biochemical; conditions: 500 µM APAD+, 100 µM NADH, 500 nM piericidin A; pH 7.5, 32 °C
# T1 construct: gene NDUFV1; native 45-subunit complex from heart mitochondria, purified in LMNG, in proteoliposomes; with NADH dehydrogenase [ubiquinone] flavoprotein 2, mitochondrial; NADH-ubiquinone oxidoreductase 75 kDa subunit, mitochondrial; NADH dehydrogenase [ubiquinone] iron-sulfur protein 2, mitochondrial; NADH dehydrogenase [ubiquinone] iron-sulfur protein 7, mitochondrial
# T1 sequence (P25708 21-464, one chain of several): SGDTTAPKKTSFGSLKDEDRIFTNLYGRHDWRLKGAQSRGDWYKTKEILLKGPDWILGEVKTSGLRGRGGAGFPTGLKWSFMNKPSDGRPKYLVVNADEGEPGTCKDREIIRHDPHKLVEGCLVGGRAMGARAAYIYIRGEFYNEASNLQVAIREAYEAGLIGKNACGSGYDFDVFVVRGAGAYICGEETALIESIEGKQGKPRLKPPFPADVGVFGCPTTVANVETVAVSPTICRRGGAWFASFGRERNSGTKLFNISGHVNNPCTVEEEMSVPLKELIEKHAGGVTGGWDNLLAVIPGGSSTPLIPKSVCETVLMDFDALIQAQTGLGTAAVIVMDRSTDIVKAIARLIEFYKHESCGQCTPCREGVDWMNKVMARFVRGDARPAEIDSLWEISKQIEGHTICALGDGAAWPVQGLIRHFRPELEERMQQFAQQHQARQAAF
# [2] = target: T1, complex I (CI), NADH-binding site; test: NADH oxidation by CI-PLs with AOX, absorbance; assay type: biochemical; conditions: 200 µM NADH, ubiquinone-10, AOX; pH 7.5, 32 °C
# [3] = target: T2, complex I (CI), ubiquinone-10-binding site (Bos taurus, UniProt P03887+P17694+P42026); test: cryoEM structure in proteoliposomes; conditions: CI-out-closed state, 2.5 Å; native substrate, deep-bound
# T2 construct: gene NDUFS2; native 45-subunit complex from heart mitochondria, purified in LMNG, reconstituted in proteoliposomes (CI-PLs); natural variant NDUFS2-129 modelled as Arg; with NADH-ubiquinone oxidoreductase chain 3; NADH-ubiquinone oxidoreductase chain 6; NADH dehydrogenase [ubiquinone]; 1 alpha subcomplex subunit 9, mitochondrial
# T2 sequence (P17694 34-463): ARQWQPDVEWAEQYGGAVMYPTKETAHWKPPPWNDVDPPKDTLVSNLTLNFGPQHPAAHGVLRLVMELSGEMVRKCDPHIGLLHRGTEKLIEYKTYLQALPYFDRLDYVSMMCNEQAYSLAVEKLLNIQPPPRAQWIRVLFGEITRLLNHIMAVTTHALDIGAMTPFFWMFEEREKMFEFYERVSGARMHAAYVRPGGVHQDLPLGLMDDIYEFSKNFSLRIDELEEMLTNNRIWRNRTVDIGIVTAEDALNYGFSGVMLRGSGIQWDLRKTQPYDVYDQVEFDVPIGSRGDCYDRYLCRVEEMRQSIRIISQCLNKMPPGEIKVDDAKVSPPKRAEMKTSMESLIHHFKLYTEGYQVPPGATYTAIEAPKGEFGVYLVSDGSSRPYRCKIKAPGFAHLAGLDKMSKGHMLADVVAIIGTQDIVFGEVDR
# T2 sequence (P03887 whole entry): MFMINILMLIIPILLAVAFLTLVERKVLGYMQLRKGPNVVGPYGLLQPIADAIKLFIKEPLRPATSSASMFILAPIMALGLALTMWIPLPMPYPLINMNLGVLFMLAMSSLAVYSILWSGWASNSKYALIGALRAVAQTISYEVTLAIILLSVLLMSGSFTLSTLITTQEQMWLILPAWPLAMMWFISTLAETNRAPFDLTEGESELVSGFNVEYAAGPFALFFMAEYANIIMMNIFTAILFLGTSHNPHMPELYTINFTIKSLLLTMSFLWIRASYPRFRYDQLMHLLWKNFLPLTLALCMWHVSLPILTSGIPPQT
# T2 sequence (P42026 38-216): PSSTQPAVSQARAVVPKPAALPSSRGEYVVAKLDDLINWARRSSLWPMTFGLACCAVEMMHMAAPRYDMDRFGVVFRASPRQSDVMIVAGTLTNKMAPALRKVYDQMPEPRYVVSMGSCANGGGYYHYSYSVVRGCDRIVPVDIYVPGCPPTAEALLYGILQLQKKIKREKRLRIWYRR
compound,measurement,setting,value
CC(=O)c1ccc[n+]([C@@H]2O[C@H](COP(=O)([O-])OP(=O)(O)OC[C@H]3O[C@@H](n4cnc5c(N)ncnc54)[C@H](O)[C@@H]3O)[C@@H](O)[C@H]2O)c1 [APAD^+],"NADH:APAD+ oxidoreduction, absorbance",[1],Complex I concentration in CI-PLs was determined using the NADH:APAD^+ oxidoreduction reaction
NC(=O)C1=CN([C@@H]2O[C@H](COP(=O)(O)OP(=O)(O)OC[C@H]3O[C@@H](n4cnc5c(N)ncnc54)[C@H](O)[C@@H]3O)[C@@H](O)[C@H]2O)C=CC1 [NADH],"NADH oxidation by CI-PLs with AOX, absorbance",[2],NADH:O2 oxidoreduction rates were measured as the rates of NADH oxidation
COC1=C(OC)C(=O)C(C/C=C(\C)CC/C=C(\C)CC/C=C(\C)CC/C=C(\C)CC/C=C(\C)CC/C=C(\C)CC/C=C(\C)CC/C=C(\C)CC/C=C(\C)CCC=C(C)C)=C(C)C1=O [ubiquinone-10],cryoEM structure in proteoliposomes,[3],"The CI-in/out-closed structures exhibit well-ordered density for ubiquinone-10, inserted fully into its active site"

# From doi:10.1101/2023.12.14.571638v1, “Structural basis of a regulatory switch in mammalian complex I” (biorxiv, 2023)
